We go through two substances from patent US7348306B2, “Composition for promoting lacrimal secretion” (Fuso Pharmaceutical Industries, Ltd., priority 1999, dated 2008).

Where no end group is shown, it is not given here.

This test relates to rat lacrimal secretion. The experiment in a line: Rat lacrimal secretion in vivo, Schirmer test paper, after intravenous administration of PAR-associated peptides. Conditions: male Wistar rat. How it is done: An amount of lacrimal fluid may be measured according to the known method such as a method of Iga et al. using a rat (Iga, Y. et al., Jpn. J. Pharmacol., 78, 373-80, 1998). In particular, a rat is anesthetized with pentobarbital (50 mg/kg, intraabdominal administration), and a paper with 2 mm width for testing the human lacrimal secretion function, the Schirmer test paper (Showa Yakuhin Kako Co., Ltd.) is inserted into a lower eyelid of the rat. After a period of time fixed has passed, the test paper is removed, and a length of the wetted portion of the test paper is measured using a caliper square.
Male Wistar-line rat at 6 weeks of age was used in experiments. Each animal was housed for one week under the environment of room temperature of 23±2° C., a humidity of 50±5% and a 12 hours light/dark cycle (light: 07:00-19:00) and, thereafter, it was subjected to experiments. During the housing and experiment period, the animal was fed a solid chow and water ad lib.
Four animals were used in Examples 3-4, and the results thereof are shown in the mean±S.E.M. The test of significance was performed according to a Tukey's multiple comparison test.
An amount of rat lacrimal fluid was measured according to the method of Iga et al. (Iga, Y. et al., Jpn. J. Pharmacol., 78, 373-80, 1998). That is, the rat was anesthetized with pentobarbital (50 mg/kg, intraabdominal administration), and a paper with 2 mm width for testing human lacrimal secretion function, the Schirmer test paper (Showa Yakuhin Kako Co., Ltd.) was inserted into a lower eyelid of the rat. After the period of time fixed has passed, the test paper was removed, and a length of a wetted portion of the test paper was measured using a caliper square. An amount of lacrimal fluid was measured at 1, 2, 4, 6, 8 and 10 minutes after intravenous administration of a solvent or PAR-associated peptides.
An amount of lacrimal fluid was measured as described in Example 3.

[1] abbreviates: 5 μmol/kg intravenously, peptide alone, Example 3 (FIG. 1).

As for “Leu-Arg-Gly-Ile-Leu-Ser-NH2 (LRGILS-NH2) [LRp-NH2, designed control peptide, C-terminal amidated, reference compound]”, for the setting “5 μmol/kg intravenously, Example 4 (FIG. 2), vs solvent-administrated group”, the “effect on rat lacrimal secretion” value is listed as “no effect”.

As to “Ser-Leu-Ile-Gly-Arg-Leu-NH2 (SLIGRL-NH2) [SLp-NH2]”, under setting [1], the “effect on lacrimal secretion (length of wetted portion of Schirmer test paper)” value is recorded as “significant promotion of lacrimal secretion” and the “time of peak of lacrimal secretion promotion after intravenous administration” value came out at 1 min. In addition, the “dose-dependency of rat lacrimal secretion promoting action” value (1 to 5 μmol/kg intravenously, Example 4 (FIG. 2), vs solvent) is given as “promoted the rat lacrimal secretion in doses of ranging from 1 to 5 μmol/kg in a dose-dependent manner”. Moreover, for the setting “SLp-NH2 5 μmol/kg i.v. with amastatine 2.5 μmol/kg i.v. 1 minute before, P<0.01 vs SLp-NH2 (Tukey test)”, the “lacrimal secretion 8 and 10 minutes after combined treatment with amastatine, as compared with SLp-NH2 alone” value is listed as “significant promotion of lacrimal secretion”. Moreover, the “persistence of lacrimal secretion promoting action in combined treatment with amastatine” value (SLp-NH2 5 μmol/kg i.v. with amastatine 2.5 μmol/kg i.v. 1 minute before, compared with SLp-NH2 alone) is “more persistent than that of SLp-NH2 alone”.
